Data published in publication PMC4965013, “Open Source Drug Discovery with the Malaria Box Compound Collection for Neglected Diseases and Beyond” (PLoS Pathogens, 2016).
Where two headings read alike, the source gives them in different places.

Assays:
P. falciparum = assay: EC50 listed in S2 Table Metabolomics (used to set the concentration tested); assay type: cell-based; conditions: Plasmodium falciparum; EC50 used for Factor_XEC50 in metabolomics; read-out: EC50_nM
[1] = system: P. falciparum 3D7 trophozoites; assay: Metabolomic fingerprint profiling LC-MS; assay type: cell-based, Plasmodium falciparum; parameters: UDP-D-glucose / ADP-D-glucose: unit not given here; conditions: for Acetyllysine / N-acetyl-L-ornithine / N-carbamoyl-L-aspartate / NADPH / dAMP / dCMP / dTDP / dTMP / dTTP / dihydroorotate / orotate / DLH / DLS/SDL/SID / PD / PEE / PVNF / 3-phosphoglycerate / ADP-D-glucose / ATP / CDP / D-sedoheptulose-1/7-phosphate / FAD / GMP / NAD+ / NADP+ / Octoluse Bisphosphate / Pyroglutamic acid / UDP-D-glucose / UDP-D-glucuronate / UDP-N-acetyl-glucosamine / UDP / UMP / UTP / a-ketoglutarate / citrate/isocitrate / cytidine / dATP / dGMP/AMP / fumarate / glucose-1/6-phosphate / glycerate / guanine / guanosine / hypoxanthine / indole / inosine / nicotinate / ornithine / phosphoenolpyruvate / pyruvate / ribose-phosphate / sarcosine/alanine / sn-glycerol-3-phosphate / succinate/methylmalonic acid / uridine / xanthosine: S2 Table Metabolomics; for Acetyllysine: metabolite Acetyllysine; for N-acetyl-L-ornithine: metabolite N-acetyl-L-ornithine; for N-carbamoyl-L-aspartate: metabolite N-carbamoyl-L-aspartate; for NADPH: metabolite NADPH; for dAMP: metabolite dAMP; for dCMP: metabolite dCMP; for dTDP: metabolite dTDP; for dTMP: metabolite dTMP; for dTTP: metabolite dTTP; for dihydroorotate: metabolite dihydroorotate; for orotate: metabolite orotate; for DLH: peptide DLH; for DLS/SDL/SID: peptide DLS/SDL/SID; for PD: peptide PD; for PEE: peptide PEE; for PVNF: peptide PVNF; for 3-phosphoglycerate: metabolite 3-phosphoglycerate; for ADP-D-glucose: metabolite ADP-D-glucose; for ATP: metabolite ATP; for CDP: metabolite CDP; for CDP / D-sedoheptulose-1/7-phosphate / GMP / Octoluse Bisphosphate / UDP / UMP / UTP / citrate/isocitrate / dGMP/AMP / fumarate / glucose-1/6-phosphate / glycerate / guanine / guanosine / inosine / pyruvate / sarcosine/alanine / succinate/methylmalonic acid / uridine / xanthosine: change in metabolite level after compound treatment; for D-sedoheptulose-1/7-phosphate: metabolite D-sedoheptulose-1/7-phosphate; for FAD: metabolite FAD; for GMP: metabolite GMP; for NAD+: metabolite NAD+; for NADP+: metabolite NADP+; for Octoluse Bisphosphate: metabolite Octoluse Bisphosphate; for Pyroglutamic acid: metabolite Pyroglutamic acid; for UDP-D-glucose: metabolite UDP-D-glucose; for UDP-D-glucuronate: metabolite UDP-D-glucuronate; for UDP-N-acetyl-glucosamine: metabolite UDP-N-acetyl-glucosamine; for UDP: metabolite UDP; for UMP: metabolite UMP; for UTP: metabolite UTP; for a-ketoglutarate: metabolite a-ketoglutarate; for citrate/isocitrate: metabolite citrate/isocitrate; for cytidine: metabolite cytidine; for dATP: metabolite dATP; for dGMP/AMP: metabolite dGMP/AMP; for fumarate: metabolite fumarate; for glucose-1/6-phosphate: metabolite glucose-1/6-phosphate; for glycerate: metabolite glycerate; for guanine: metabolite guanine; for guanosine: metabolite guanosine; for hypoxanthine: metabolite hypoxanthine; for indole: metabolite indole; for inosine: metabolite inosine; for 2_3-Diphosphoglyceric acid / 4-phosphopantothenate / 6-phospho-D-gluconate / FMN / IMP / Pyrophosphate / Sedoheptoluse bisphosphate / cyclic-AMP / glutathione disulfide / lactate / myo-inositol: metabolite level change after treatment; for nicotinate: metabolite nicotinate; for ornithine: metabolite ornithine; for phosphoenolpyruvate: metabolite phosphoenolpyruvate; for pyruvate: metabolite pyruvate; for ribose-phosphate: metabolite ribose-phosphate; for sarcosine/alanine: metabolite sarcosine/alanine; for sn-glycerol-3-phosphate: metabolite sn-glycerol-3-phosphate; for succinate/methylmalonic acid: metabolite succinate/methylmalonic acid; for uridine: metabolite uridine; for xanthosine: metabolite xanthosine
P. falciparum 3D7 = assay: [3H]-hypoxanthine growth inhibition, modified HCO3- or O2; assay type: cell-based; conditions: for IC50: Plasmodium falciparum

With `CCN(CC)CCNc1ncnc2c1[nH]c1ccc(Cl)cc12` [MMV396703] the EC50 (P. falciparum) was 406 nM, the Acetyllysine [1] was -0.2691 and the N-acetyl-L-ornithine [1] was -0.2168. For the same molecule, the N-carbamoyl-L-aspartate [1] was 1.148, the NADPH [1] was -0.09375 and the dAMP [1] was 0.7031. For the same molecule, the dCMP [1] was -0.6066, the dTDP [1] was 0.1301 and the dTMP [1] was 0.2768. The dTTP [1] was -0.448, the dihydroorotate [1] was 1.736 and the orotate [1] was -0.221. The DLH [1] was -2.825, the DLS/SDL/SID [1] was -3.008 and the PD [1] was -0.5054. The PEE [1] was -0.1284, the PVNF [1] was -2.309 and the 3-phosphoglycerate [1] was -0.08336. It also gave an ADP-D-glucose [1] of -0.05094, an ATP [1] of -0.4333 and a CDP [1] of 0.1613. It also gave a D-sedoheptulose-1/7-phosphate [1] of 0.02906, an FAD [1] of -0.01537 and a GMP [1] of -0.5327. For the same molecule, the “NAD+” value [1] was 0.6915, the “NADP+” value [1] was -0.1108 and the “Octoluse Bisphosphate” value [1] was -0.5568. It also gave a Pyroglutamic acid [1] of -0.07773, a UDP-D-glucose [1] of 0.04104 and a UDP-D-glucuronate [1] of -0.19. The UDP-N-acetyl-glucosamine [1] was 0.01931, the UDP [1] was 0.1008 and the UMP [1] was -0.1897. For the same molecule, the UTP [1] was -0.3667, the a-ketoglutarate [1] was -0.2121 and the citrate/isocitrate [1] was -0.02741. The cytidine [1] was -0.169, the dATP [1] was -0.3924 and the dGMP/AMP [1] was 0.4109. It also gave a fumarate [1] of 0.899, a glucose-1/6-phosphate [1] of 0.3195 and a glycerate [1] of 0.2766. For the same molecule, the guanine [1] was 0.5966, the guanosine [1] was 0.5739 and the hypoxanthine [1] was -0.03794. It also gave an indole [1] of -0.04008, an inosine [1] of 0.01185 and a 2_3-Diphosphoglyceric acid [1] of -0.2785. For the same molecule, the 4-phosphopantothenate [1] was 0.1971, the 6-phospho-D-gluconate [1] was -0.09007 and the FMN [1] was -0.3587. For the same molecule, the IMP [1] was 0.3624, the Pyrophosphate [1] was -0.1133 and the Sedoheptoluse bisphosphate [1] was 0.1128. It also gave a cyclic-AMP [1] of -0.07748, a glutathione disulfide [1] of -0.04771 and a lactate [1] of -0.382. The myo-inositol [1] was -0.001865, the nicotinate [1] was 0.1485 and the ornithine [1] was 0.2269. The phosphoenolpyruvate [1] was -0.03548, the pyruvate [1] was -0.182 and the ribose-phosphate [1] was -0.3286. The sarcosine/alanine [1] was -0.1738, the sn-glycerol-3-phosphate [1] was -0.2165 and the succinate/methylmalonic acid [1] was -0.02068. For the same molecule, the uridine [1] was -0.05174, the xanthosine [1] was -0.494 and the “fold change (IC50reduced/IC50normal)” value (P. falciparum 3D7) was 2.6. For the same molecule, the IC50 (P. falciparum 3D7; 3D7, read-out: P. falciparum 3D7 IC50 HCO3- (2g/L), standard media) was 326 nM and the IC50 (P. falciparum 3D7; 3D7, HCO3- reduced media, read-out: P. falciparum 3D7 IC50 HCO3- reduced) was 851 nM.
With `CCC(c1ccccc1)c1nn2c(-c3cccs3)nnc2s1` (stereo not shown) [MMV665876] the EC50 (P. falciparum) was 259 nM, the Acetyllysine [1] was 0.283 and the N-acetyl-L-ornithine [1] was 0.02574. It also gave a N-carbamoyl-L-aspartate [1] of 2.073, an NADPH [1] of -0.7617 and a dAMP [1] of 0.5954. For the same molecule, the dCMP [1] was -0.9145, the dTDP [1] was -1.527 and the dTMP [1] was -1.62. It also gave a dTTP [1] of -1.561, a dihydroorotate [1] of 2.966 and an orotate [1] of -1.924. The DLH [1] was -0.4979, the DLS/SDL/SID [1] was -0.4746 and the PD [1] was 0.3937. The PEE [1] was -0.2764, the PVNF [1] was -2.041 and the 3-phosphoglycerate [1] was -0.3031. It also gave an ADP-D-glucose [1] of -0.09411, an ATP [1] of -0.3796 and a CDP [1] of -0.8385. It also gave a D-sedoheptulose-1/7-phosphate [1] of 0.09562, an FAD [1] of 0.1414 and a GMP [1] of -0.3833. For the same molecule, the “NAD+” value [1] was -0.3556, the “NADP+” value [1] was -0.2262 and the “Octoluse Bisphosphate” value [1] was -0.1952. For the same molecule, the Pyroglutamic acid [1] was -0.02059, the UDP-D-glucose [1] was -0.01878 and the UDP-D-glucuronate [1] was -0.4807. It also gave a UDP-N-acetyl-glucosamine [1] of -0.2752, a UDP [1] of -1.799 and a UMP [1] of -3.164. The UTP [1] was -2.138, the a-ketoglutarate [1] was -0.08894 and the citrate/isocitrate [1] was -0.02094. It also gave a cytidine [1] of 0.3021, a dATP [1] of 0.315 and a dGMP/AMP [1] of 0.04047. For the same molecule, the fumarate [1] was 0.2534, the glucose-1/6-phosphate [1] was -0.2061 and the glycerate [1] was 0.1397. For the same molecule, the guanine [1] was 0.4421, the guanosine [1] was 0.6466 and the hypoxanthine [1] was -0.006623. The indole [1] was 0.04311, the inosine [1] was 0.2618 and the 2_3-Diphosphoglyceric acid [1] was -0.3467. It also gave a 4-phosphopantothenate [1] of -0.1285, a 6-phospho-D-gluconate [1] of 0.112 and an FMN [1] of -0.3509. For the same molecule, the IMP [1] was 0.3458, the Pyrophosphate [1] was -0.3973 and the Sedoheptoluse bisphosphate [1] was 0.1676. It also gave a cyclic-AMP [1] of -0.04329, a glutathione disulfide [1] of 0.137 and a lactate [1] of -0.1203. The myo-inositol [1] was 0.267, the nicotinate [1] was 0.1101 and the ornithine [1] was 0.02403. It also gave a phosphoenolpyruvate [1] of -0.2926, a pyruvate [1] of 0.1322 and a ribose-phosphate [1] of -0.01159. The sarcosine/alanine [1] was 0.3044, the sn-glycerol-3-phosphate [1] was -0.401 and the succinate/methylmalonic acid [1] was 0.1519. For the same molecule, the uridine [1] was -0.6108, the xanthosine [1] was 0.3254 and the “fold change (IC50normal/ IC50hypoxia)” value (P. falciparum 3D7) was 6.3. The IC50 (P. falciparum 3D7; 3D7, read-out: P. falciparum 3D7 IC50 1% O2, 1% O2 hypoxia) was 66 nM and the IC50 (P. falciparum 3D7; 3D7, read-out: P. falciparum 3D7 IC50 5% O2) was 415 nM.
